In patent US20230167108A1, “CRYSTAL OF IMIDAZOPYRIDINONE COMPOUND OR SALT THEREOF” (Kissei Pharmaceutical Co., Ltd., priority 2020, published 2023):

What was measured:
[1] = Solid stability test (physicochemical and chemical stability of crystals); conditions: open condition at 40° C., 1 month; for Amount of the mass change of the compound 1: HPLC area normalization; for Properties: appearance; for Crystal form change: powder X-ray diffraction
Excerpt: Test Example 4: Solid Stability Test
The physicochemical stability and chemical stability for the crystals of the compound 1 (crystal forms I to III), the crystals of the methanesulfonic acid salt of the compound 1 (crystal forms I, II and IV), the crystals of the hydrochloride (crystal forms I and III), the crystal form I of the p-toluenesulfonic acid salt, the crystal form I of the sodium salt and the crystal form I of the calcium salt were examined.
Physicochemical stability: Each crystal was stored under open condition at 40° C. The powder X-ray diffraction of the sample was measured at the initial point and 1 month later, and the change in crystal form Was confirmed. The change in properties was also observed at the same time. Chemical stability: Each crystal was stored under open condition at 40° C. The mass of the compound 1 in the sample was measured under the following HPLC measurement conditions at the initial point and 1 month later.
Detector: Ultraviolet and visible absorptiometer/wavelength: 225 nm
Column: L-column 2 ODS, 3 μm, 4.6×150 mm (Chemicals Evaluation and Research Institute)
Column temperature: Constant temperature around 40° C. Flow rate: 1.0 mL/min Mobile phase A: Potassium dihydrogenphosphate and dipotassium hydrogenphosphate aqueous solution adjusted to 10 mmol/L with water Mobile phase B: Acetonitrile Mobile phase ratios: 0 to 30 minutes: mobile phase A/mobile phase B=88/12 30 to 50 minutes: mobile phase A/mobile phase B=88/12 to 25/75 50 to 55 minutes: mobile phase A/mobile phase B=25/75 55 to 55.01 minutes: mobile phase A/mobile phase B=25/75 to 88/12 55.01 to 75 minutes: mobile phase Airmobile phase B=88/12 Amount of injection: 5 μL Sample cooler: 4° C. Dissolution solvent: Mixed solution (mobile phase A/acetonitrile=75/25) Sample solution: Sample was dissolved in dissolution solvent and adjusted to about 1 mg/mL
Excluding the peaks derived from the blank, the peak areas of the compound 1 and an analogous substance were measured by automatic integration, and the mass of the compound 1 was calculated by area normalization method. Further, the amount of the mass change of the compound 1 after the storage was calculated.

[2] = system: TNBS induced colitis model rat; assay: Therapeutic effect in colitis model (suppression of intestinal permeability of FITC); type: in vivo; conditions: 3 mg/kg orally once a day for 3 days, serum FITC, mean
Description: Test Example 2 Therapeutic Effect in Colitis Model
(1) TNBS Induced Colitis Model Rat
Thus, the suppressive effect on the intestinal permeability based on oral administration of the test compound was evaluated as an indicator of medicinal efficacy.
SD male rats: 8-week-old SIX (Japan SLC) were used, Under pentobarbital anesthesia, 300 μL of 28 mg/mL TNBS which was adjusted with 50% ethanol was administered at a point 8 cm from the anus in the large intestine to cause inflammation. To the solvent-treated group was administrated 300 μL of 50% ethanol. Animals were fasted for 48 hours prior to administration of TNBS. The test compound (3 mg/kg) prepared with 0.05% methylcellulose solution was orally administered once a day from the next day, and it was administered for a total of 3 days. After administering for 3 clays, 50 mg/kg FITC was orally administered 4 hours after the administration of the test compound. Blood samples were collected from jugular vein under isoflurane anesthesia after 4 hours. The serum was centrifuged, and fluorescence intensity was detected by PHERAstar FSX (BMG Labtech) to measure the concentration of FITC permeating into circulating blood through the mesentery. The suppressive rate on the intestinal permeability of the test compound was calculated based on the value of the test substance-free group as 0 and the value of the TNBS-untreated group as 100.

[3] = Rat PK study: concentration of compound in large intestine tissue and plasma; type: in vivo; conditions: 3 mg/kg oral, non-fasted SD rats
Description: Test Example 3 Concentration of Compound in Large Intestine Tissue
The test compound (3 mg/kg/5 mL) prepared with 0.05% methylcellulose was orally administered to non-fasted rats (SD, 8-week-old, male, T SLC). Blood samples were collected from jugular vein 0.25, 0.5, 1, 2, 4, 6 and […] hours after the administration. Laparotomy was performed under isoflurane anesthesia, and the large intestine was isolated. The collected distal large intestine (about 5 cm) was cut open, and then the large intestine extracted was washed with saline on a dish. After washing, the large intestine was minced with small scissors. About 150 mg thereof was moved to a tube. To the tube was added 100 μL of saline, and the mixture was homogenized using shake master (1000 rpm×30 minutes). Samples were prepared by the addition with quadruple volume of saline as the final volume. The concentrations of the test compound in the large intestine tissue and the plasma were measured through a quantitative analysis using liquid chromatography-mass spectrometry (LC/MS).
Cmax: maximum plasma concentration of the test compound in the case of oral administration (ng/mL) AUC: area under the plasma test compound concentration-time curve (ng*min/mL) Plasma: plasma test compound concentration after 8 hours (ng/mL) Colon: concentration of the test compound in the large intestine tissue after hours (ng/g) C/P: ratio of the above Colon and Plasma

[4] = target: T1, human PHD2184-418 (Homo sapiens, UniProt Q9GZT9); assay: PHD2 inhibitory test (fluorescence polarization, FITC-labeled HIF-1α556-574); type: binding; conditions: 2 μM 2-oxoglutarate, 37° C. for 60 minutes
T1 construct: containing amino acid residues 184 to 418 of the protein represented by CAC42509; histidine tag (N); made in house; host or cells: E. coli BL21 (DE3), pET-30a (+) vector
Description: Test Example 1 PHD2 Inhibitory Test
(1) Expression and Preparation of Human […]
Human PHD2184-418 is containing amino acid residues 184 to 418 of the protein represented by CAC42509 (GenBank accession ID) was expressed and prepared by the following method.
An expression construct of human PHD2184-418 containing an N-terminal histidine tag was introduced into pET-30a (+) vector, and the sequence was confirmed. This vector was introduced into BL21 (DE3) strain and cultured at 37° C. in LB medium containing antibiotics. After culturing, a cell lysis solution was added to the cells, and then the cells were disrupted and suspended by sonication. The disrupted suspension was centrifuged, and the supernatant was purified by Ni column to give human PHD2184-418.
Human HIF-1α556-574 (FITC-labeled HIF-1α556-574), containing FITC-Ahx at the N-terminal of HIF-1α556-574 containing amino acid residues 556 to 574 (partial peptide) of human HIF-1α, was used as a substrate. Using FITC-labeled HIF-1α556-574, the competitive inhibition between 2-oxoglutarate and the test compound ([…]) was evaluated based on the change in fluorescence polarization of FITC-labeled HIF-1α556-574 by the following method.
An enzyme (human PHD2184-418) and the substrate were diluted with an assay buffer (pH 7.4) containing 10 mM HEPES, 150 mM NaCl, 10 μM MnCl2-4H2O, 2 μM 2-oxoglutarate and 0.05% Tween-20. […]

T1 sequence (Q9GZT9 184-418): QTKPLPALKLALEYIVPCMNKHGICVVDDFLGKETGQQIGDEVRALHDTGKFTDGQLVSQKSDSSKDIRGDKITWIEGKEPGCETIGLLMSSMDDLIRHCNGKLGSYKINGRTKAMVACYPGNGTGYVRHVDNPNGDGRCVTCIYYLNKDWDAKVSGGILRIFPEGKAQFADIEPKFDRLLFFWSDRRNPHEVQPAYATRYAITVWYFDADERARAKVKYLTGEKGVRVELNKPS

Structure (SMILES)	Amount of the mass change of the compound 1 [1]	Properties [1]	Crystal form change [1]	Inhibition (%): suppressive rate on the intestinal permeability [2]	Inhibition (%): suppressive rate on the intestinal permeability ([2]; listed as compound 1)	C/P: ratio of Colon and Plasma [3]	Colon: concentration of the test compound in the large intestine tissue ([3]; distal large intestine)	Kp ([3]; male, rat, large intestine tissue / plasma, read-out: C/P: ratio of Colon and Plasma)	concentration at 8 h ([3]; male, rat, plasma, 8 hours, read-out: Plasma: plasma test compound concentration after 8 hours)	AUC ([3]; male, rat, plasma, read-out: AUC: area under the plasma test compound concentration-time curve (converted))	Cmax ([3]; male, rat, plasma, read-out: Cmax: maximum plasma concentration of the test compound)	IC50 (human PHD2 binding inhibitory activity) [4]	IC50 ([4]; read-out: IC50 (human PHD2 binding inhibitory activity))
Cn1c(C(=O)O)cnc1CN1CC[C@H](n2c(=O)n(-c3ccc(-c4ccc(C(=O)O)cc4)nc3)c3cccnc32)C1 [Crystal form III of the compound 1]	−0.04%	White powder, no change	No change										
Cn1c(C(=O)O)cnc1CN1CC[C@H](n2c(=O)n(-c3ccc(-c4ccc(C(=O)O)cc4)nc3)c3cccnc32)C1 [Compound 1, 2-{[(3S)-3-{1-[6-(4-Carboxyphenyl)pyridin-3-yl]-2-oxo-2,3-dihydro-1H-imidazo[4,5-b]pyridin-3-yl}pyrrolidin-1-yl]methyl}-1-methyl-1H-imidazole-5-carboxylic Acid]				101%	suppressed	higher concentration in the large intestine tissue than the concentration in the plasma	164 ng/g	> 164	< 1 ng/mL	1.95 ng·h/mL	1 ng/mL	inhibited binding between PHD2 and HIF-1α	180 nM
Cn1c(C(=O)O)cnc1CN1CC[C@H](n2c(=O)n(-c3ccc(-c4ccc(C(=O)O)cc4)nc3)c3cccnc32)C1 [Crystal form I of the compound 1]	No change	White powder, no change	No change										
Cn1c(C(=O)O)cnc1CN1CC[C@H](n2c(=O)n(-c3ccc(-c4ccc(C(=O)O)cc4)nc3)c3cccnc32)C1 [Crystal form II of the compound 1]	−0.03%	White powder, no change	No change										
